Experimental data as given in article PMC11649115, “In vitro safety evaluation of dopamine D3R antagonist, R-VK4-116, as a potential medication for the treatment of opioid use disorder” (PLOS ONE, 2024).

Assays:
CYP2C19 = CYP2C19 (Homo sapiens, UniProt P33261); assay: CYP inhibition in human liver microsomes; conditions: human
CYP2C9 = CYP2C9 (Homo sapiens, UniProt P11712); assay: CYP inhibition in human liver microsomes; conditions: human
CYP2C8 = target: T1, CYP2C8 (Homo sapiens, UniProt P10632); assay: CYP inhibition in human liver microsomes; conditions: human
T1 sequence (P10632 1-490): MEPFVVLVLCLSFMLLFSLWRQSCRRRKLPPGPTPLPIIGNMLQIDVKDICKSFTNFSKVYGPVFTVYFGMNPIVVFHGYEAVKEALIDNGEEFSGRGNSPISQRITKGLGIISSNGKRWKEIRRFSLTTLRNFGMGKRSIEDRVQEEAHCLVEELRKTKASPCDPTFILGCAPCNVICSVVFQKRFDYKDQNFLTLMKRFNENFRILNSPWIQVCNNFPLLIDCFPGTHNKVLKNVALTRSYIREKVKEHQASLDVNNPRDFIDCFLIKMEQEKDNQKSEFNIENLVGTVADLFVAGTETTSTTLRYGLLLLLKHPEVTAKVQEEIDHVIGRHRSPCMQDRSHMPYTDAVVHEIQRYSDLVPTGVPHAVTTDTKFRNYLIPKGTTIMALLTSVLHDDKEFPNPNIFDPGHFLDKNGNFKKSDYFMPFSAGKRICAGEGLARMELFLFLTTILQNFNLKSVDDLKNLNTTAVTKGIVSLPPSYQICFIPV

CYP1A2 = target: T2, CYP1A2 (Homo sapiens, UniProt P05177); assay: CYP inhibition in human liver microsomes; conditions: human
T2 sequence (P05177 1-516): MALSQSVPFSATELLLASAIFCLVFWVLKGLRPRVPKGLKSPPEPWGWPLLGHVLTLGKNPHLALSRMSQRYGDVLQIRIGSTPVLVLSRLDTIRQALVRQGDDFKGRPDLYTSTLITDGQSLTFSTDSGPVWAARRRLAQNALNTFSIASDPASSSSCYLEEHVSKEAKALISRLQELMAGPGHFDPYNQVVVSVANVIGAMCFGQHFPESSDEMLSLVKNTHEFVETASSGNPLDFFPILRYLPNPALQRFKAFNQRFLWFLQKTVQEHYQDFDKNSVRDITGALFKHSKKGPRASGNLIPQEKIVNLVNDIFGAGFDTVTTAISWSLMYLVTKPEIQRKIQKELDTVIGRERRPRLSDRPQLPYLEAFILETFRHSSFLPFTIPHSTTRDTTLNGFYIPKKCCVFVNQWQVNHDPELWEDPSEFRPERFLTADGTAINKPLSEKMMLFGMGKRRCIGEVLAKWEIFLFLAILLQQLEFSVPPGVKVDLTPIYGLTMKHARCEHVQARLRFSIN

CYP2D6 = CYP2D6 (Homo sapiens, UniProt P10635); assay: CYP inhibition in human liver microsomes; conditions: human
CYP2B6 = target: T3, CYP2B6 (Homo sapiens, UniProt P20813); assay: CYP inhibition in human liver microsomes; conditions: human
T3 sequence (P20813 1-491): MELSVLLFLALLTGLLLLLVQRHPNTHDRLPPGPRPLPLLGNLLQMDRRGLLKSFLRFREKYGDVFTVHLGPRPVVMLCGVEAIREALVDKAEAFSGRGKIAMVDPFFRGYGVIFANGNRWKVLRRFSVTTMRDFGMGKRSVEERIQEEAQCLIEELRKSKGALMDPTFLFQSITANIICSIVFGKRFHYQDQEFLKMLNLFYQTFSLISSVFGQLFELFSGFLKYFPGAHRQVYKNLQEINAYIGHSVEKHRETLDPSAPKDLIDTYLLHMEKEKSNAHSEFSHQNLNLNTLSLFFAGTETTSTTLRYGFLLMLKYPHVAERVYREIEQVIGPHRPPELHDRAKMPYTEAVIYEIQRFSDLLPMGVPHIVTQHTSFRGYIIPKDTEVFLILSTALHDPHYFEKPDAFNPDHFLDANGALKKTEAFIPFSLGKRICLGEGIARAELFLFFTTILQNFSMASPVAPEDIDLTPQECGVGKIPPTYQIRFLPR

CYP3A4 = CYP3A4 (Homo sapiens, UniProt P08684); assay: CYP inhibition in human liver microsomes
OATP1B3 = target: T4, OATP1B3 (Homo sapiens, UniProt Q9NPD5); assay: Transporter mediated assay (substrate/inhibitor), MDCK-II cells; type: in vitro ADME; conditions: human, polarized monolayer of MDCK-II cells expressing OATP1B3; OATP1B3, No BSA, 100 μM
T4 construct: expressed in transfected cells; host or cells: MDCK-II cells
T4 sequence (Q9NPD5 1-702): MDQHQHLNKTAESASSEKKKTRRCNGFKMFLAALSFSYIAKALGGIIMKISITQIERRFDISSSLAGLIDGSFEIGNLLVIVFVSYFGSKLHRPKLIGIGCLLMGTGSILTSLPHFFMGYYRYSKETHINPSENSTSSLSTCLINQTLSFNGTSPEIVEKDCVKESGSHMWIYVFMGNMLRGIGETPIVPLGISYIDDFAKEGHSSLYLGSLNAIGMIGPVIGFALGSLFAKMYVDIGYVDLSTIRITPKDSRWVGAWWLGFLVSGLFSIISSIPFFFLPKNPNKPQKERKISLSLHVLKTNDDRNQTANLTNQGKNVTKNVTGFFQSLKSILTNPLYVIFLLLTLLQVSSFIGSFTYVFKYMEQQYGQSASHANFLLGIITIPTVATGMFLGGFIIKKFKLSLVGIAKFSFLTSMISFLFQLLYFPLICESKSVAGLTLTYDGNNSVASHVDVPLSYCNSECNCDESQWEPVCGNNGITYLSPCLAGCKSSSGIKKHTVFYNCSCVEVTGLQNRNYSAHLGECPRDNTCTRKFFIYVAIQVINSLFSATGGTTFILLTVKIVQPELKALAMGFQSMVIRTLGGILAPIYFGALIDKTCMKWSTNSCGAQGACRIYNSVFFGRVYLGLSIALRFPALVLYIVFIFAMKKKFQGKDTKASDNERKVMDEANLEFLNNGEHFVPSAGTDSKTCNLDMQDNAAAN
Experimental: (§1) The MDCK-II cells were treated to express the transporter of interest. The transport of each probe substrate was determined by radiometric detection (Fig 1 in S1 File). […] For the uptake assay, the net transporter-mediated uptake-rate (V) of the substrate by each SLC transporter was calculated as follows: Transporter–mediatedupdaterate(pmol/min/cm^2)=(Cellularaccumulationincellsexpressingthetransporter)−(Meancellularaccumulationincontrolcells)/Surfacearea×incubationtime
(§2) Fold of activity and percent inhibition were determined as follows: Foldofactivity=(Meanuptakerate)transporterexpressingcells/(Meanuptakerate)controlcells Percentinhibition=100−100×(Transport‐mediatedupdaterate)withinhibitor/(Transport‐mediatedupdaterate)vehiclecontrol

OATP1B1 = target: T5, OATP1B1 (Homo sapiens, UniProt Q9Y6L6); assay: as above; type: in vitro ADME; conditions: human, polarized monolayer of MDCK-II cells expressing OATP1B1; OATP1B1, No BSA, 100 μM
T5 construct: expressed in transfected cells; host or cells: MDCK-II cells
T5 sequence (Q9Y6L6 1-691): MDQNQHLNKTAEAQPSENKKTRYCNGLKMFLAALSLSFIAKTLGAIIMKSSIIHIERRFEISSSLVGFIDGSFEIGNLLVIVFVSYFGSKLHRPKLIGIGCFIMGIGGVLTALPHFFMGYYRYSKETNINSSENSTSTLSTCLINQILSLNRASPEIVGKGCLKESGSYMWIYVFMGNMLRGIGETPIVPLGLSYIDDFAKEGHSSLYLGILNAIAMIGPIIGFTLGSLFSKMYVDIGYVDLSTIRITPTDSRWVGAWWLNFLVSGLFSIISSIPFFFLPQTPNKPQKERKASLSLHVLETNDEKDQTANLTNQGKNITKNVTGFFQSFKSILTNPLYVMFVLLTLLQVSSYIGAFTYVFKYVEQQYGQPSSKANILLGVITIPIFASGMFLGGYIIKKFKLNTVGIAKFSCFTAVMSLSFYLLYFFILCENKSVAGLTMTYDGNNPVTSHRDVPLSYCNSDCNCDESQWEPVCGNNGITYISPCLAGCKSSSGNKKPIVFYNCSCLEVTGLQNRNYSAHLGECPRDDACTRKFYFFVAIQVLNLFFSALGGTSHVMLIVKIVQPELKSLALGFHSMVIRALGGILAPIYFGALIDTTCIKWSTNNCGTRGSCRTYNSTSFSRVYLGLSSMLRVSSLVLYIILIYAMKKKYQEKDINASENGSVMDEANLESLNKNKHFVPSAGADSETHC
Experimental: as §1, §2

OAT3 = target: T6, OAT3 (Homo sapiens, UniProt Q8TCC7); assay: as above; type: in vitro ADME; conditions: human; OAT3, No BSA, 100 μM
T6 construct: expressed in transfected cells; host or cells: MDCK-II cells
T6 sequence (Q8TCC7 1-542): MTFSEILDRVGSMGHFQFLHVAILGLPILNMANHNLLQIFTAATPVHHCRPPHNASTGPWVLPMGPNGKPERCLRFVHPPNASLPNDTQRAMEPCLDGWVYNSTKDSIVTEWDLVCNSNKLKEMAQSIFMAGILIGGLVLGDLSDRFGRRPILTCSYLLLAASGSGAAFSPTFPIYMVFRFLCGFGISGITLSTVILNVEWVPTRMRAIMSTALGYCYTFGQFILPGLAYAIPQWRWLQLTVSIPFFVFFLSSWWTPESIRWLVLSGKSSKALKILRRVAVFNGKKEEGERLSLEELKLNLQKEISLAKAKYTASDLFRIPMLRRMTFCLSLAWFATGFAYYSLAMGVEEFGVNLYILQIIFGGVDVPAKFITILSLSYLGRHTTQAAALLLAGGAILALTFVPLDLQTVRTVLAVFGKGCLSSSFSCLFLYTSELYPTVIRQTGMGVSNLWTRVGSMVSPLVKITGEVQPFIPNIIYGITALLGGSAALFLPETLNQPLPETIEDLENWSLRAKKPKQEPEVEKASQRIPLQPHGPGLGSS
Experimental: as §1, §2

P-gp = target: T7, P-gp (Homo sapiens, UniProt P08183); assay: as above; type: in vitro ADME; conditions: P-gp, substrate test, 0.1 µM
T7 construct: expressed in transfected cells; host or cells: MDCK-II cells
Experimental: The MDCK-II cells were treated to express the transporter of interest.
For BCRP and P-gp, the apparent permeability Papp and Efflux Ratio (ER) were calculated [16]. Net basal (B) to apical (A) flux (B → A) of the substrate transport (pmol/min/cm^2) by BCRP or P-gp was calculated by subtracting A → B flux from B → A flux.

OCT2 = target: T8, OCT2 (Homo sapiens, UniProt O15244); assay: as above; type: in vitro ADME; conditions: human, polarized monolayer of MDCK-II cells expressing OCT2; OCT2, No BSA, 1000 μM
T8 construct: expressed in transfected cells; host or cells: MDCK-II cells
T8 sequence (O15244 1-555): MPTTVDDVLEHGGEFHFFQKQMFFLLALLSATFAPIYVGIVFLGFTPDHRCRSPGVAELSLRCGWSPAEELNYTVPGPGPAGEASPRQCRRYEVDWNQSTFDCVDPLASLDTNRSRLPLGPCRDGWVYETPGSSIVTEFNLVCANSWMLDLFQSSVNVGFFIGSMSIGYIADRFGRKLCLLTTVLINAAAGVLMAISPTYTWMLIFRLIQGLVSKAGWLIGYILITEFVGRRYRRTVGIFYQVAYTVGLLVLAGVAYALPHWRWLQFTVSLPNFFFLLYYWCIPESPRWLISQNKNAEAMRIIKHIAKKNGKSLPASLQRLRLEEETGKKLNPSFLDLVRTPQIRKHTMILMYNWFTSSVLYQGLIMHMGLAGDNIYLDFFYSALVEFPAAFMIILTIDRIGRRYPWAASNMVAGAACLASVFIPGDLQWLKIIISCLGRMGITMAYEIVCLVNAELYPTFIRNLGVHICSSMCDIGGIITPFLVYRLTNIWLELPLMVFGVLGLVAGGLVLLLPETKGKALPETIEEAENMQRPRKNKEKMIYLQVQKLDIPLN
Experimental: as §1, §2

[1] = CYP activity (% of Control) 3A4 (Midazolam), substrate midazolam
[2] = CYP activity (% of Control) 3A4 (Testosterone), substrate testosterone

Chain of CYP2C19 (P33261 whole entry): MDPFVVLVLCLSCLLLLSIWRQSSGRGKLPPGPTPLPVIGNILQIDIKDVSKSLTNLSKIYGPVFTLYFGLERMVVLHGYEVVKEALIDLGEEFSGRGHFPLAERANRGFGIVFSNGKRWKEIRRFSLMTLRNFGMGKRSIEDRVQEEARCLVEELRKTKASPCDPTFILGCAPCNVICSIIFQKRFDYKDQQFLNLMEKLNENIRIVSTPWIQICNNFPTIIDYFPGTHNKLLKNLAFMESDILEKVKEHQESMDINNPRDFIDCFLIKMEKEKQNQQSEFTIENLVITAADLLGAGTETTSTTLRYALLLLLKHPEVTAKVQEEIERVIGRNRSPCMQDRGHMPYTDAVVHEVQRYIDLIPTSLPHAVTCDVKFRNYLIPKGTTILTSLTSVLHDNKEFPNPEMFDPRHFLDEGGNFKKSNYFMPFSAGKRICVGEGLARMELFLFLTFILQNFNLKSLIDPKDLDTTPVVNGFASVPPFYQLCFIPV
T7 sequence (P08183 whole entry): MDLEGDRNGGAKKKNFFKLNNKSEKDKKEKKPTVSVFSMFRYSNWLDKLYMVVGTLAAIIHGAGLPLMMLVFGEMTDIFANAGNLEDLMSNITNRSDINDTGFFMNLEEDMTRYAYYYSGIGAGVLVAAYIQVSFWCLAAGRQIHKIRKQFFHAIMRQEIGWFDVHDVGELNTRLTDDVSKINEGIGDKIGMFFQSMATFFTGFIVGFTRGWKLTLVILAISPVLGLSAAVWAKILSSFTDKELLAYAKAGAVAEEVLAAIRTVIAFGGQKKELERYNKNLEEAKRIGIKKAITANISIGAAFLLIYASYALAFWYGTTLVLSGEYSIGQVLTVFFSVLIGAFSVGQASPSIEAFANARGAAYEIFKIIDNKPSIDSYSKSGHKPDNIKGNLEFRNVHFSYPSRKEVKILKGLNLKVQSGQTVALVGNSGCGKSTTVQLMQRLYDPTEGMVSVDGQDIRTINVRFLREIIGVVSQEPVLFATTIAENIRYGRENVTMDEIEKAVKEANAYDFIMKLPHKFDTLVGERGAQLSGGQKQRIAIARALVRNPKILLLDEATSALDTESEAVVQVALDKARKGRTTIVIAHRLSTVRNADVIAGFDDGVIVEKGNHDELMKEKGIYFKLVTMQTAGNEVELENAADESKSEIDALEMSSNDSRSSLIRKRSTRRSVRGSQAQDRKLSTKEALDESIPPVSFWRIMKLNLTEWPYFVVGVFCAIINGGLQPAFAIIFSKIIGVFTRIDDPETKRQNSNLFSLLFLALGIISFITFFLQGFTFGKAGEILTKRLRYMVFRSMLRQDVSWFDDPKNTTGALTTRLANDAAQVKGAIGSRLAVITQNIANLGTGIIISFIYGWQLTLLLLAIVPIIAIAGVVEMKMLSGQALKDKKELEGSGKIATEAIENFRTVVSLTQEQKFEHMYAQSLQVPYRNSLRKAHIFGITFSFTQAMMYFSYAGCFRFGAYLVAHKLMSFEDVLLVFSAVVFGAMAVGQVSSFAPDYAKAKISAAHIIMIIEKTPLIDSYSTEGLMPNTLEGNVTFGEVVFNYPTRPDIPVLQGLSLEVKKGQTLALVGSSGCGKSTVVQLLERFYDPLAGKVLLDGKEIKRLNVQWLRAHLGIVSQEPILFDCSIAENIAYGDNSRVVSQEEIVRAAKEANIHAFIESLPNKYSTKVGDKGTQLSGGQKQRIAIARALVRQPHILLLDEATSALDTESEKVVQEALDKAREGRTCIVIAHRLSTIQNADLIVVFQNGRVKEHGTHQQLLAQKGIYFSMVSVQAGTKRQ
Chain of CYP2C9 (P11712 whole entry): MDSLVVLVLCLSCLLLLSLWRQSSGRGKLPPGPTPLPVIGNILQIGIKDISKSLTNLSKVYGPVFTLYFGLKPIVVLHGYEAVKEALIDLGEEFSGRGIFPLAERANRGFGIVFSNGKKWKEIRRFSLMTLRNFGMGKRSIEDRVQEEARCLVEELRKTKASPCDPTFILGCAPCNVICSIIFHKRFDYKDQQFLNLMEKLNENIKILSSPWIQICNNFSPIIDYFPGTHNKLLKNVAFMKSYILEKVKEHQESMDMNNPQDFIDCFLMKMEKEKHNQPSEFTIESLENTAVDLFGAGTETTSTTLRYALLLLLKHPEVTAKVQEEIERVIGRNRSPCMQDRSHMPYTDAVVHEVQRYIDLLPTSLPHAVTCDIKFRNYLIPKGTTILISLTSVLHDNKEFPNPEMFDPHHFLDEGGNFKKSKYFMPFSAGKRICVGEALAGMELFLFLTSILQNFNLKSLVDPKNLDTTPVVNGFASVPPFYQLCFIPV
Chain of CYP3A4 (P08684 2-503): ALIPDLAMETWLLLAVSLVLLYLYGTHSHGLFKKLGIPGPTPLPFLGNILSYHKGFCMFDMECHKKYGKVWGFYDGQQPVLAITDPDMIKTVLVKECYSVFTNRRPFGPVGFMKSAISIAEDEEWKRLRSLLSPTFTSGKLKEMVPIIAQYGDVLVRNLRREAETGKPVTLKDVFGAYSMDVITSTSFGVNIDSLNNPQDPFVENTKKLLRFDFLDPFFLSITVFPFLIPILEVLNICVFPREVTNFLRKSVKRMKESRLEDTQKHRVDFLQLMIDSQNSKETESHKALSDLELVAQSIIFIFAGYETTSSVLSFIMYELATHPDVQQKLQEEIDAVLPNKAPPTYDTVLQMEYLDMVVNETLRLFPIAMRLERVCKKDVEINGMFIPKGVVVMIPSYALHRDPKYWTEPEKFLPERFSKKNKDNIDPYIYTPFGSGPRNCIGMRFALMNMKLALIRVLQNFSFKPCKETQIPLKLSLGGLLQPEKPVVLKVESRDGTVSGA
Chain of CYP2D6 (P10635 whole entry): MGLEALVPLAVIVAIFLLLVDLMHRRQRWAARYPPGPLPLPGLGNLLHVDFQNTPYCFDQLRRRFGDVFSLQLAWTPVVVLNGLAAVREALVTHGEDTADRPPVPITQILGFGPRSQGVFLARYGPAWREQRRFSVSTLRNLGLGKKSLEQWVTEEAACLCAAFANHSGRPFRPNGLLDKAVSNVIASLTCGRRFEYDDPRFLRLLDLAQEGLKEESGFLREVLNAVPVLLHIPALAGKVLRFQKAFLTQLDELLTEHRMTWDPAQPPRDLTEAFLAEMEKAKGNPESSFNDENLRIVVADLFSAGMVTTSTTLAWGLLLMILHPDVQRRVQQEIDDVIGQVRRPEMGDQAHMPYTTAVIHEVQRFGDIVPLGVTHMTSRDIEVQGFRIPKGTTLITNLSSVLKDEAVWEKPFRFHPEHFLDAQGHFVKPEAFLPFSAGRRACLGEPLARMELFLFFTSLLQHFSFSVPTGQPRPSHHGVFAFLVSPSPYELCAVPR

`C=C(C)[C@@H]1CCC2=CC(=O)C[C@@H](C)[C@]2(C)C1` [Nootkatone] showed an activity at 20 min, 30 µM (CYP2C19; microsomes) of 57.3 ± 5.7%, an activity at 20 min, 30 µM (CYP2C9; microsomes) of 84.6 ± 8.5% and an activity at 20 min, 30 µM (CYP2C8; microsomes) of 78.8 ± 12.5%. For the same compound, the activity at 20 min, 30 µM (CYP1A2; microsomes) was 91.3 ± 4.8%, the activity at 20 min, 30 µM (CYP2D6; microsomes) was 91.9 ± 8.4% and the activity at 20 min, 30 µM (CYP2B6; microsomes) was 23.8 ± 2.7%. For the same compound, the activity at 20 min, 30 µM (CYP3A4; [1]) was 84.5 ± 4% and the activity at 20 min, 30 µM (CYP3A4; [2]) was 79.4 ± 5.4%.
With `CO[C@H]1/C=C/O[C@@]2(C)Oc3c(C)c(O)c4c(O)c(c(/C=N/N5CCN(C)CC5)c(O)c4c3C2=O)NC(=O)/C(C)=C\C=C\[C@H](C)[C@H](O)[C@@H](C)[C@@H](O)[C@@H](C)[C@H](OC(C)=O)[C@@H]1C` [Rifampicin, reference compound] the inhibition at 100 µM (OATP1B3) was 99.2 ± 0.26% and the inhibition at 100 µM (OATP1B1) was 98.3 ± 1.37%.
In the case of `S=P(N1CC1)(N1CC1)N1CC1` [ThioTEPA], the activity at 20 min, 10 µM (CYP2C19; microsomes) is reported as 108 ± 4.3%, the activity at 20 min, 10 µM (CYP2C9; microsomes) is reported as 92.9 ± 1.5% and the activity at 20 min, 10 µM (CYP2C8; microsomes) is reported as 96.8 ± 4.4%. The activity at 20 min, 10 µM (CYP1A2; microsomes) was 93.8 ± 4.3%, the activity at 20 min, 10 µM (CYP2D6; microsomes) was 90.7 ± 2% and the activity at 20 min, 10 µM (CYP2B6; microsomes) was 52 ± 0.1%. The activity at 20 min, 10 µM (CYP3A4; [1]) was 92.6 ± 2.2% and the activity at 20 min, 10 µM (CYP3A4; [2]) was 91.4 ± 1.3%.
`CCCN(CCC)S(=O)(=O)c1ccc(C(=O)O)cc1` [probenecid, reference compound] showed an inhibition at 100 µM (OAT3) of 95.3 ± 0.73%.
With `C=C[C@H]1C[N@@]2CC[C@H]1C[C@@H]2[C@@H](O)c1ccnc2ccc(OC)cc12` [quinidine, reference compound] the activity at 20 min, 2 µM (CYP2C19; human liver microsomes, probe mephenytoin) was 97.7 ± 2.3%, the activity at 20 min, 2 µM (CYP2C9; human liver microsomes, probe diclofenac) was 82.7 ± 1.1% and the “Vectorial Net Transport (B->A) - (A->B)” value (P-gp) was 0.52 ± 0.03 pmoles/min/cm^2. It also gave a Papp A→B at 0.1 µM (P-gp; human, MDCK-MDR1) of 2.62 ± 0.42 ×10⁻⁶ cm/s, a Papp B→A at 0.1 µM (P-gp; human, MDCK-MDR1) of 80.7 ± 4.23 ×10⁻⁶ cm/s and an activity at 20 min, 2 µM (CYP2C8; human liver microsomes, probe paclitaxel) of 71.3 ± 2.2%. The activity at 20 min, 2 µM (CYP1A2; human liver microsomes, probe phenacetin) was 88.3 ± 1%, the activity at 20 min, 2 µM (CYP2D6; human liver microsomes, probe bufuralol) was 17.3 ± 0.2% and the inhibition at 1000 µM (OCT2) was 100 ± 0.21%. For the same compound, the activity at 20 min, 2 µM (CYP2B6; human liver microsomes, probe bupropion) was 91.6 ± 2.4%.
